Reference: patent US9388162B2, “Substituted morphinans and the use thereof” (Purdue Pharma L.P., priority 2012, dated 2016)

Legend:
μ-opioid receptors = μ-opioid receptors (Homo sapiens (Human), UniProt P35372); assay: μ-opioid receptor [35S]GTPγS functional assay, U-2 OS cells; type: biochemical; settings: μ GTP; for EC50: read-out: Activity Response μ EC50 (nM) [mean ± SEM]; for Emax: relative to DAMGO, read-out: Activity Response μ Emax (%)
Method: [^35S]GTPγS functional assays were conducted using freshly thawed μ-receptor membranes prepared from a cell line expressing recombinant μ opioid receptor in a HEK-293, CHO or U-2 OS cell background or purchased from a commercial source (Perkin Elmer, Shelton, Conn.; or DiscovRx, Fremont, Calif.). Assay reactions were prepared by sequentially adding the following reagents to binding buffer (100 mM NaCl, 10 mM MgCl2, 20 mM HEPES, pH 7.4) on ice (final concentrations indicated): membrane protein (0.026 mg/mL), saponin ([…]), GDP ([…]) and [^35S]GTPγS (0.20 nM; Perkin Elmer, Shelton, Conn.). The prepared membrane solution (190 μl/well) was transferred to 96-shallow well polypropylene plates containing 10 μl of 20× concentrated stock solutions of the agonist [D-Ala^2, N-methyl-Phe^4 Gly-ol^5]-enkephalin (DAMGO) prepared in dimethyl sulfoxide (DMSO). Plates were incubated for 30 min at about 25° C. with shaking. Reactions were terminated by rapid filtration onto 96-well Unifilter GF/B filter plates (Perkin Elmer, Shelton, Conn.) using a 96-well tissue harvester (Perkin Elmer, Shelton, Conn.) followed by three filtration washes with 200 μl of ice-cold wash buffer (10 mM NaH2PO4, 10 mM Na2HPO4, pH 7.4). Filter plates were subsequently dried at 50° C. for 2-3 hours. BetaScint scintillation cocktail (Perkin Elmer, Shelton, Conn.) was added (50 μl/well) and plates were counted using a Packard Top-Count for 1 min/well. Data were analyzed using the sigmoidal dose-response curve fitting functions in GraphPad PRISM v. 3.0, or an in-house function for non-linear, sigmoidal dose-response curve-fitting.
μ GTP EC50 is the concentration of a compound providing 50% of the maximal response for the compound at a μ-opioid receptor.
μ GTP Emax (%) is the maximal effect elicited by a compound relative to the effect elicited by DAMGO, a standard μ agonist. Generally, the μ GTP Emax (%) value measures the efficacy of a compound to treat or prevent pain or other Conditions.
(§1) The following tables provide results on the efficacy of binding and activity response of exemplified Compounds of the Invention at the μ- and κ-opioid receptors. In TABLE 3, binding affinity of certain Compounds of the Invention to the μ- and κ-opioid receptors was determined as described above. In TABLE 4, activity response of certain Compounds of the Invention to the μ- and κ-opioid receptors was determined as described above for functional assays using HEK-293 cells. In TABLE 5, activity response of certain Compounds of the Invention to the μ- and κ-opioid receptors was determined as described above using U-2 OS cells.

κ opioid receptor = κ opioid receptor (Homo sapiens (Human), UniProt P41145); assay: κ-opioid receptor [35S]GTPγS functional assay, U-2 OS cells; type: biochemical; settings: κ GTP; for EC50: read-out: Activity Response κ EC50 (nM) [mean ± SEM]; for Emax: relative to U69,593, read-out: Activity Response κ Emax (%)
Method: Membranes from HEK-293 cells, CHO or U-2 OS cells expressing the recombinant human kappa opioid receptor (κ) were prepared by lysing cells in ice cold hypotonic buffer (2.5 mM MgCl2, 50 mM HEPES, pH 7.4) (10 mL/10 cm dish) followed by homogenization with a tissue grinder/Teflon pestle. Membranes were collected by centrifugation at 30,000×g for 15 min at 4° C. and pellets were resuspended in hypotonic buffer to a final concentration of 1-3 mg/mL. Protein concentrations were determined using the BioRad protein assay reagent with bovine serum albumen as standard. Aliquots of κ receptor membranes were stored at −80° C.
Functional [^35S]GTPγS binding assays were conducted as follows. κ opioid receptor membrane solution was prepared by sequentially adding final concentrations of 0.026 μg/μl κ membrane protein (in-house), 10 μg/mL saponin, 3 μM GDP and 0.20 nM [^35S]GTPγS to binding buffer (100 mM NaCl, 10 mM MgCl2, 20 mM HEPES, pH 7.4) on ice. The prepared membrane solution (190 μl/well) was transferred to 96-shallow well polypropylene plates containing 10 μl of 20× concentrated stock solutions of agonist prepared in DMSO. Plates were incubated for 30 min at a temperature of about 25° C. with shaking. Reactions were terminated by rapid filtration onto 96-well Unifilter GF/B filter plates (Perkin Elmer, Shelton, Conn.) using a 96-well tissue harvester (Packard) and followed by three filtration washes with 200 μl ice-cold binding buffer (10 mM NaH2PO4, 10 mM Na2HPO4, pH 7.4). Filter plates were subsequently dried at 50° C. for 2-3 hours. Fifty μl/well scintillation cocktail (Perkin Elmer, Shelton, Conn.) was added and plates were counted in a Packard Top-Count for 1 min/well.
κ GTP EC50 is the concentration of a compound providing 50% of the maximal response for the compound at a κ receptor.
κ GTP Emax (%) is the maximal effect elicited by a compound relative to the effect elicited by U69,593.
as §1, with “In” for “The following tables provide results on the efficacy of binding and activity response of exemplified Compounds of the Invention at the μ- and κ-opioid receptors. In”

Q: For `O=C(N[C@H]1C[C@@]2(O)[C@H]3Cc4ccc(O)cc4[C@@]2(CCN3CC2CC2)CC1=O)C1CCCC1` [Compound 35, N-((4bR,7S,8aS,9R)-11-(cyclopropylmethyl)-3,8a-dihydroxy-6-oxo-6,7,8,8a,9,10-hexahydro-5H-9,4b-(epiminoethano)phenanthren-7-yl)cyclopentanecarboxamide], which EC50 (μ-opioid receptors) is on record?
A: > 200000 nM

Q: What about the Emax (μ-opioid receptors) of the same compound?
A: 2%

Q: And the EC50 (κ opioid receptor)?
A: 13.6 ± 1.04 nM

Q: What about the Emax (κ opioid receptor) of the same compound?
A: 85.7 ± 2.4%

Q: With `COc1ccc2c(c1)[C@]13CCN(C)[C@H](C2)[C@]1(O)C[C@H](CCOCc1ccccc1)C(=O)C3` [Compound 50, (4bR,7S,8aS,9R)-7-(2-(benzyloxy)ethyl)-8a-hydroxy-3-methoxy-11-methyl-8,8a,9,10-tetrahydro-5H-9,4b-(epiminoethano)phenanthren-6(7H)-one] as the compound, how does the EC50 (μ-opioid receptors) read?
A: 148 ± 10.4 nM

Q: And the Emax (μ-opioid receptors)?
A: 102 ± 1.67%

Q: And the EC50 (κ opioid receptor)?
A: 7900 ± 707 nM

Q: And the Emax (κ opioid receptor)?
A: 74 ± 5.29%

Q: What does the source list for `CN1CC[C@]23CC(=O)[C@@H](CC(=O)O)C[C@@]2(O)[C@H]1Cc1ccc(O)cc13` [Compound 61, 2-((4bR,7R,8aS,9R)-3,8a-dihydroxy-11-methyl-6-oxo-6,7,8,8a,9,10-hexahydro-5H-9,4b-(epiminoethano)phenanthren-7-yl)acetic acid]?
A: EC50 (μ-opioid receptors): 466 ± 81 nM; Emax (μ-opioid receptors): 77.3 ± 2.03%; EC50 (κ opioid receptor): 963 ± 83 nM; Emax (κ opioid receptor): 90 ± 10%

Q: Which EC50 (μ-opioid receptors) does the source give for `O=C(N[C@H]1C[C@@]2(O)[C@H]3Cc4ccc(O)cc4[C@@]2(CCN3CC2CC2)CC1=O)c1ccccc1` [Compound 36, N-((4bR,7S,8aS,9R)-11-(cyclopropylmethyl)-3,8a-dihydroxy-6-oxo-6,7,8,8a,9,10-hexahydro-5H-9,4b-(epiminoethano)phenanthren-7-yl)benzamide] here?
A: 12.7 ± 2.92 nM

Q: And the Emax (μ-opioid receptors)?
A: 20.3 ± 0.33%

Q: What about the EC50 (κ opioid receptor) of the same compound?
A: 4.28 ± 0.6 nM

Q: And the Emax (κ opioid receptor)?
A: 99 ± 4.73%

Q: What does the source list for `CC(C)(C)C[C@H]1C[C@@]2(O)[C@H]3Cc4ccc(O)cc4[C@@]2(CCN3CC2CC2)CC1=O` [Compound 68, (4bR,7S,8aS,9R)-11-(cyclopropylmethyl)-3,8a-dihydroxy-7-neopentyl-8,8a,9,10-tetrahydro-5H-9,4b-(epiminoethano)phenanthren-6(7H)-one]?
A: EC50 (μ-opioid receptors): > 200000 nM; Emax (μ-opioid receptors): 3%; EC50 (κ opioid receptor): 20.5 ± 0.4 nM; Emax (κ opioid receptor): 69 ± 3.21%

Q: `CN1CC[C@]23CC(=O)[C@@H](CC(=O)N4CCCCC4)C[C@@]2(O)[C@H]1Cc1ccc(O)cc13` [Compound 80, (4bR,7R,8aS,9R)-3,8a-dihydroxy-11-methyl-7-(2-oxo-2-(piperidin-1-yl)ethyl)-8,8a,9,10-tetrahydro-5H-9,4b-(epiminoethano)phenanthren-6(7H)-one] was tested. Which EC50 (μ-opioid receptors) did it give?
A: 581 ± 22.1 nM

Q: And the Emax (μ-opioid receptors)?
A: 74 ± 0.58%

Q: And the EC50 (κ opioid receptor)?
A: 1200 ± 114 nM

Q: And the Emax (κ opioid receptor)?
A: 43 ± 1.73%

Q: `O=C1C[C@]23CCN(CC4CC4)[C@H](Cc4ccc(O)cc42)[C@]3(O)C[C@@H]1CC1CCCC1` [Compound 65, (4bR,7S,8aS,9R)-7-(cyclopentylmethyl)-11-(cyclopropylmethyl)-3,8a-dihydroxy-8,8a,9,10-tetrahydro-5H-9,4b-(epiminoethano)phenanthren-6(7H)-one] was tested. Which EC50 (μ-opioid receptors) did it give?
A: > 200000 nM

Q: And the Emax (μ-opioid receptors)?
A: 4%

Q: And the EC50 (κ opioid receptor)?
A: 2.57 ± 0.24 nM

Q: What about the Emax (κ opioid receptor) of the same compound?
A: 101 ± 5.51%

Q: Which results are given for `CC(C)C(=O)N[C@H]1C[C@@]2(O)[C@H]3Cc4ccc(O)cc4[C@@]2(CCN3CC2CC2)CC1=O` [Compound 27, N-((4bR,7S,8aS,9R)-11-(cyclopropylmethyl)-3,8a-dihydroxy-6-oxo-6,7,8,8a,9,10-hexahydro-5H-9,4b-(epiminoethano)phenanthren-7-yl)isobutyramide]?
A: EC50 (μ-opioid receptors): > 200000 nM; Emax (μ-opioid receptors): 8 ± 2.12%; EC50 (κ opioid receptor): 24.7 ± 3.18 nM; Emax (κ opioid receptor): 92.7 ± 3.18%

Q: With `COc1ccc2c(c1)[C@]13CCN(C)[C@H](C2)[C@]1(O)C[C@H](CC(=O)N1CCOCC1)C(=O)C3` [Compound 79, (4bR,7R,8aS,9R)-8a-hydroxy-3-methoxy-11-methyl-7-(2-morpholino-2-oxoethyl)-8,8a,9,10-tetrahydro-5H-9,4b-(epiminoethano)phenanthren-6(7H)-one] as the compound, how does the EC50 (μ-opioid receptors) read?
A: 11700 ± 3620 nM

Q: What about the Emax (μ-opioid receptors) of the same compound?
A: 60 ± 10.2%

Q: And the EC50 (κ opioid receptor)?
A: > 200000 nM

Q: What about the Emax (κ opioid receptor) of the same compound?
A: 51 ± 0.58%

Q: `COc1ccc2c(c1)[C@]13CCN(C)[C@H](C2)[C@]1(O)C[C@H](CC(=O)N1CCC(O)CC1)C(=O)C3` [Compound 78, (4bR,7R,8aS,9R)-8a-hydroxy-7-(2-(4-hydroxypiperidin-1-yl)-2-oxoethyl)-3-methoxy-11-methyl-8,8a,9,10-tetrahydro-5H-9,4b-(epiminoethano)phenanthren-6(7H)-one] was tested. Which EC50 (μ-opioid receptors) did it give?
A: 10400 ± 4810 nM

Q: What about the Emax (μ-opioid receptors) of the same compound?
A: 36.7 ± 9.17%

Q: What about the EC50 (κ opioid receptor) of the same compound?
A: > 200000 nM

Q: And the Emax (κ opioid receptor)?
A: 53.3 ± 1.45%

Q: How did the EC50 (μ-opioid receptors) turn out when `CCOC(=O)C[C@H]1C[C@@]2(O)[C@H]3Cc4ccc(OC)cc4[C@@]2(CCN3C)CC1=O` [Compound 59, ethyl 2-((4bR,7R,8aS,9R)-8a-hydroxy-3-methoxy-11-methyl-6-oxo-6,7,8,8a,9,10-hexahydro-5H-9,4b-(epiminoethano)phenanthren-7-yl)acetate] was run?
A: 11500 ± 903 nM

Q: What about the Emax (μ-opioid receptors) of the same compound?
A: 100 ± 4.62%

Q: And the EC50 (κ opioid receptor)?
A: > 200000 nM

Q: What about the Emax (κ opioid receptor) of the same compound?
A: 59 ± 1.53%

Q: For `CC(C)CCC(=O)N[C@H]1C[C@@]2(O)[C@H]3Cc4ccc(O)cc4[C@@]2(CCN3CC2CC2)CC1=O` [Compound 30, N-((4bR,7S,8aS,9R)-11-(cyclopropylmethyl)-3,8a-dihydroxy-6-oxo-6,7,8,8a,9,10-hexahydro-5H-9,4b-(epiminoethano)phenanthren-7-yl)-4-methylpentanamide], which EC50 (μ-opioid receptors) is on record?
A: 9.61 ± 0.83 nM

Q: And the Emax (μ-opioid receptors)?
A: 51 ± 2.65%

Q: What about the EC50 (κ opioid receptor) of the same compound?
A: 1.61 ± 0.12 nM

Q: And the Emax (κ opioid receptor)?
A: 97.7 ± 3.18%

Q: `CC(C)(C)C(=O)N[C@H]1C[C@@]2(O)[C@H]3Cc4ccc(O)cc4[C@@]2(CCN3CC2CC2)CC1=O` [Compound 32, N-((4bR,7S,8aS,9R)-11-(cyclopropylmethyl)-3,8a-dihydroxy-6-oxo-6,7,8,8a,9,10-hexahydro-5H-9,4b-(epiminoethano)phenanthren-7-yl)pivalamide] was tested. Which EC50 (μ-opioid receptors) did it give?
A: 18.6 ± 8.05 nM

Q: What about the Emax (μ-opioid receptors) of the same compound?
A: 11.3 ± 0.88%

Q: What about the EC50 (κ opioid receptor) of the same compound?
A: 17.5 ± 2.66 nM

Q: What about the Emax (κ opioid receptor) of the same compound?
A: 113 ± 3.61%

Q: What does the source list for `C[C@H](NC(=O)C[C@H]1C[C@@]2(O)[C@H]3Cc4ccc(O)cc4[C@@]2(CCN3C)CC1=O)C(=O)O` [Compound 75, (2-((4bR,7R,8aS,9R)-3,8a-dihydroxy-11-methyl-6-oxo-6,7,8,8a,9,10-hexahydro-5H-9,4b-(epiminoethano)phenanthren-7-yl)acetyl)-L-alanine]?
A: EC50 (μ-opioid receptors): 1150 ± 103 nM; Emax (μ-opioid receptors): 95 ± 1.53%; EC50 (κ opioid receptor): 16600 ± 1190 nM; Emax (κ opioid receptor): 66.7 ± 1.2%

Q: Which results are given for `COc1ccc2c(c1)[C@]13CCN(C)[C@H](C2)[C@]1(O)C[C@H](CC(=O)O)C(=O)C3` [Compound 60, 2-((4bR,7R,8aS,9R)-8a-hydroxy-3-methoxy-11-methyl-6-oxo-6,7,8,8a,9,10-hexahydro-5H-9,4b-(epiminoethano)phenanthren-7-yl)acetic acid]?
A: EC50 (κ opioid receptor): 14900 ± 1320 nM; Emax (κ opioid receptor): 84.3 ± 0.67%
